How the values were obtained:
Format in all cases: biochemical
[1] = system: oxidoreductase enzyme derived from Rhizobium sp. GIN611; assay: Deglycosylation activity for flavonoid glycoside substrates by MALDI mass spectrometry; conditions: flavonoid glycoside as substrate
Description: After reacting using ginsenoside Rh2, ginsenoside F2, ginsenoside Rb1, ginsenoside Rb2, ginsenoside Rc, ginsenoside Rb3, ginsenoside F1, ginsenoside Re or the isoflavone daidzin as a substrate, followed by extraction by adding the same volume of ethyl acetate, the ethyl acetate layer was dried and then dissolved again in ethanol, which was subjected to activity measurement by MALDI mass spectrometry.
The oxidoreductase enzyme derived from Rhizobium sp. GIN611, whose expression was induced, was reacted with the flavonoid icariin, camelliaside A or camelliaside B as a substrate in the manner described above and activity was measured by MALDI mass spectrometry. Oxidation of galactose attached to camelliaside A and deglycosylation activity thereof were identified. Also, oxidation of xylose attached to camelliaside B and deglycosylation activity thereof were identified. That is to say, the enzyme was confirmed to show deglycosylation activity for sugars attached to the flavonoid-based aglycones and to capable of degrading not only glucose but also galactose and xylose by oxidizing them (see FIGS. 12 and 13).

[2] = system: deglycosylating enzyme isolated from the selected Rhizobium sp. GIN611; assay: Substrate specificity of deglycosylating enzyme isolated from Rhizobium sp. GIN611; conditions: ginsenoside as substrate
Description: Investigation of the substrate specificity using a deglycosylating enzyme isolated from the selected Rhizobium sp. […] The inventors of the present disclosure have disrupted and centrifuged the microorganism and produced a cell extract comprising the active enzyme from a supernatant.

[3] = system: oxidoreductase enzyme derived from Rhizobium sp. GIN611; assay: Substrate specificity for glycone binding (α-/β-bonding); conditions: nitrophenyl glycoside used as substrate of the enzyme
Description: Specificity of the enzyme for α-bonding and β-bonding was investigated using 4-nitrophenyl α-D-glucopyranoside, 4-nitrophenyl β-D-glucopyranoside, 4-nitrophenyl α-D-galactopyranoside and p-nitrophenyl β-D-galactopyranoside.

| Relative activity (%) [3] [%] | Compound | further results |
| --- | --- | --- |
| 201 | O=[N+]([O-])c1ccc(O[C@H]2O[C@H](CO)[C@H](O)[C@H](O)[C@H]2O)cc1 [p-Nitrophenyl α-D-galactopyranoside] | – |
| 103 | O=[N+]([O-])c1ccc(O[C@H]2O[C@H](CO)[C@@H](O)[C@H](O)[C@H]2O)cc1 [p-Nitrophenyl α-D-glucopyranoside] | – |
| 400 | O=[N+]([O-])c1ccc(O[C@@H]2O[C@H](CO)[C@H](O)[C@H](O)[C@H]2O)cc1 [p-Nitrophenyl β-D-galactopyranoside] | – |
| 100 | O=[N+]([O-])c1ccc(O[C@@H]2O[C@H](CO)[C@@H](O)[C@H](O)[C@H]2O)cc1 [p-Nitrophenyl β-D-glucopyranoside] | – |

More lines, now with the values behind:

| Compound | Relative activity (%) [3] [%] | further results |
| --- | --- | --- |
| C[C@@H]1O[C@@H](OC[C@H]2O[C@@H](Oc3c(-c4ccc(O)cc4)oc4cc(O)cc(O)c4c3=O)[C@H](O[C@@H]3O[C@H](CO)[C@H](O)[C@H](O)[C@H]3O)[C@@H](O)[C@@H]2O)[C@H](O)[C@H](O)[C@H]1O [camelliaside A, kaempferol 3-O-(2-O-galactopyranosyl-6-O-rhamnopyranosyl)glucopyranoside] | – | oxidation of attached sugar and deglycosylation activity [1]: identified |
| C[C@@H]1O[C@@H](OC[C@H]2O[C@@H](Oc3c(-c4ccc(O)cc4)oc4cc(O)cc(O)c4c3=O)[C@H](O[C@@H]3OC[C@@H](O)[C@H](O)[C@H]3O)[C@@H](O)[C@@H]2O)[C@H](O)[C@H](O)[C@H]1O [camelliaside B, kaempferol 3-O-(2-O-xylopyranosyl-6-O-rhamnopyranosyl)glucopyranoside] | – | oxidation of attached sugar and deglycosylation activity [1]: identified |
| CC(C)=CCC[C@](C)(O[C@@H]1O[C@H](CO)[C@@H](O)[C@H](O)[C@H]1O)[C@H]1CC[C@]2(C)[C@@H]1[C@H](O)C[C@@H]1[C@@]3(C)CC[C@H](O)C(C)(C)[C@@H]3CC[C@]12C [ginsenoside CK, 20-O-β-D-glucopyranosyl-20(S)-protopanaxadiol] | – | activity for substrate [2]: high activity |

From patent US9394562B2, “Soil microorganism, novel oxidoreductase separated from the soil microorganism, gene encoding the oxidoreductase, and method for producing aglycones using the microorganism, the oxidoreductase and the gene” (AMOREPACIFIC CORPORATION, priority 2010, dated 2016)
